Test results: BindingDB's records for doi:10.1124/jpet.103.059675 (Wyeth Research, 2004)

Tests used:
[1] = molecular target: Disintegrin and metalloproteinase domain-containing protein 17 (Homo sapiens, UniProt P78536); experiment: TACE Inhibition Assay; settings: pH 7.4; 22 °C
Description: Compounds were tested for their ability to inhibit the cleavage of the substrate by the purified enzyme in a fluorescence-based fluorescence resonance energy transfer (FRET) assay. The human TACE protein was pretreated with the inhibitors for 10 min at room temperature. The reaction was initiated by the addition of pro-TNF-alpha peptide to the TACE protein, and the increase in fluorescence was monitored at excitation of 320 nm and emission of 420 nm over a period of 10 min. Under this assay condition, the IC50 value is very close to the Ki value.

[2] = molecular target: 72 kDa type IV collagenase (Homo sapiens, UniProt P08253); experiment: MMP Inhibition Assay; settings: pH 7.4; 22 °C
Description: (§1) A continuous assay was used in which the substrate is a synthetic peptide containing a fluorescent group (7-methoxycoumarin), which is quenched by energy transfer to a 2,4-dinitrophenyl group. […] The enzymatic reactions were initiated by adding the substrate, and the initial rate of the cleavage reaction was determined immediately after substrate addition.

Interstitial collagenase = molecular target: T1, Interstitial collagenase (Homo sapiens, UniProt P03956); experiment: MMP Inhibition Assay; settings: pH 7.4; 22 °C
T1 sequence (P03956 whole entry): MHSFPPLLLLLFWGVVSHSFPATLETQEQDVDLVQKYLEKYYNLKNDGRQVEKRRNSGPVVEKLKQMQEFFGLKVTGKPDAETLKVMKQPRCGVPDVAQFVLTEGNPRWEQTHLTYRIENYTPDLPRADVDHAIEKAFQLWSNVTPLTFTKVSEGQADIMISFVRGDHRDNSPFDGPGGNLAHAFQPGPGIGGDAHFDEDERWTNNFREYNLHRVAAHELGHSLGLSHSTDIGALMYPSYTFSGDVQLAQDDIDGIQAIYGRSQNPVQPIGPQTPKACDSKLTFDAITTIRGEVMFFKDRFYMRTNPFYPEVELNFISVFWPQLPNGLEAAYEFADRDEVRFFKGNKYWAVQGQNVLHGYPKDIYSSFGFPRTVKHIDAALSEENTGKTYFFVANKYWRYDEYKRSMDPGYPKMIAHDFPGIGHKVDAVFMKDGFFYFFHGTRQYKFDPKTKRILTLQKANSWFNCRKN
Description: as §1

Matrilysin = molecular target: T2, Matrilysin (Homo sapiens, UniProt P09237); experiment: MMP Inhibition Assay; settings: pH 7.4; 22 °C
T2 sequence (P09237 whole entry): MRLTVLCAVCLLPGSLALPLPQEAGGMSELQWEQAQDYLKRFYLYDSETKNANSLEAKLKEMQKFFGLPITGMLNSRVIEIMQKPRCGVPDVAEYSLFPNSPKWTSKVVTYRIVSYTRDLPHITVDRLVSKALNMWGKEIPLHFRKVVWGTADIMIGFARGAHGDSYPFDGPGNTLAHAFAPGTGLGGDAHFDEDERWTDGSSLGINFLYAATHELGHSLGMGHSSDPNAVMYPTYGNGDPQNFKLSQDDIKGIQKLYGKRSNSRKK
Description: as §1

[3] = molecular target: Matrix metalloproteinase-14 (Homo sapiens, UniProt P50281); experiment: MMP Inhibition Assay; settings: pH 7.4; 22 °C
Description: as §1

[4] = molecular target: T3, A disintegrin and metalloproteinase with thrombospondin motifs 4 (Homo sapiens, UniProt O75173); experiment: Aggrecanase-1 Inhibition Assay; settings: pH 7.5; 37 °C
T3 sequence (O75173 whole entry): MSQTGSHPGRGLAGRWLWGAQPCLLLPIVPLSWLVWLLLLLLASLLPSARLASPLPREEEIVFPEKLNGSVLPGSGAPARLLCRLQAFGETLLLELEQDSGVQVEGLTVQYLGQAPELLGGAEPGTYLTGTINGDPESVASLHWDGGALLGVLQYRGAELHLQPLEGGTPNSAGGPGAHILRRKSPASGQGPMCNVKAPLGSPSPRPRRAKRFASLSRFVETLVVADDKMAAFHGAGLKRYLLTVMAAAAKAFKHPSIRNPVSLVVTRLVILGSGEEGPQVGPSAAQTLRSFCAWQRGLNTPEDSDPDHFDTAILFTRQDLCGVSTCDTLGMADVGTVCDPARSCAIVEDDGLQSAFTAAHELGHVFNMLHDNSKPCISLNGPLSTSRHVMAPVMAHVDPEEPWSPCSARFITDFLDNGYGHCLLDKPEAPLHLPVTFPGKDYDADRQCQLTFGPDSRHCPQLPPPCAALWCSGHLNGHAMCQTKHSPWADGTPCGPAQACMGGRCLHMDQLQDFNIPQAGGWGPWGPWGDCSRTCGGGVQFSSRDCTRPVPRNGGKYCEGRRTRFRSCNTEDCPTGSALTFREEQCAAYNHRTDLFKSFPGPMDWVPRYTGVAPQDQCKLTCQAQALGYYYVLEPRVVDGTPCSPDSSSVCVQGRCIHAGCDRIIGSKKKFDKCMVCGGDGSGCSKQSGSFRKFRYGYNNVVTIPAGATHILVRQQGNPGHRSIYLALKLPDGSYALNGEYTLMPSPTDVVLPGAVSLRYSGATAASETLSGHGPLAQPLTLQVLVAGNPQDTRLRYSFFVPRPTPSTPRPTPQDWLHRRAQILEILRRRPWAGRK
Description: The recombinant Agg-1 proteins pretreated with the various concentrations of the compound for 10 to 15 min. The reaction was initiated by addition of the WAAG-3R substrate at a final concentration of 25 uM. The reaction is monitored at excitation of 340 nm and emission of 420 nm over a period of 30 min in a fluorimeter (GeminiXS; Molecular Devices Corp., Sunnyvale, CA).

Sequence of 72 kDa type IV collagenase (P08253 whole entry): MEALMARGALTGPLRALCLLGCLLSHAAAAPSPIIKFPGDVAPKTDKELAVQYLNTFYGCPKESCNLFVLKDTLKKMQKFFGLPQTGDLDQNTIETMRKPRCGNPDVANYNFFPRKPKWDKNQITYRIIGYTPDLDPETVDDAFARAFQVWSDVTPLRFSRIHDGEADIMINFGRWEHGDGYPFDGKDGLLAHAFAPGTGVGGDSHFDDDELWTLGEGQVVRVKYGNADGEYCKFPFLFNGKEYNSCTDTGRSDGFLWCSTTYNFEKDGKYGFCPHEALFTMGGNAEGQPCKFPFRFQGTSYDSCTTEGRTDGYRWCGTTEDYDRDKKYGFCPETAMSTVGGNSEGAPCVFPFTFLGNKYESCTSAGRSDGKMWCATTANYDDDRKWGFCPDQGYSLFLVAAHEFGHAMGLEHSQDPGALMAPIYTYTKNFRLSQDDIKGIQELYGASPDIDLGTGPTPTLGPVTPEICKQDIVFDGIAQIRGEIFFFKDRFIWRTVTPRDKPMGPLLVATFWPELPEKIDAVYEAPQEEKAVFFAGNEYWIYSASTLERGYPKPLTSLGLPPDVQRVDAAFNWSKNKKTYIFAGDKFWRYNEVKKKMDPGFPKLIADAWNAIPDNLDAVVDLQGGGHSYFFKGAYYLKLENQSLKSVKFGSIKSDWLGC
Sequence of Disintegrin and metalloproteinase domain-containing protein 17 (P78536 whole entry, the tested form may be a part): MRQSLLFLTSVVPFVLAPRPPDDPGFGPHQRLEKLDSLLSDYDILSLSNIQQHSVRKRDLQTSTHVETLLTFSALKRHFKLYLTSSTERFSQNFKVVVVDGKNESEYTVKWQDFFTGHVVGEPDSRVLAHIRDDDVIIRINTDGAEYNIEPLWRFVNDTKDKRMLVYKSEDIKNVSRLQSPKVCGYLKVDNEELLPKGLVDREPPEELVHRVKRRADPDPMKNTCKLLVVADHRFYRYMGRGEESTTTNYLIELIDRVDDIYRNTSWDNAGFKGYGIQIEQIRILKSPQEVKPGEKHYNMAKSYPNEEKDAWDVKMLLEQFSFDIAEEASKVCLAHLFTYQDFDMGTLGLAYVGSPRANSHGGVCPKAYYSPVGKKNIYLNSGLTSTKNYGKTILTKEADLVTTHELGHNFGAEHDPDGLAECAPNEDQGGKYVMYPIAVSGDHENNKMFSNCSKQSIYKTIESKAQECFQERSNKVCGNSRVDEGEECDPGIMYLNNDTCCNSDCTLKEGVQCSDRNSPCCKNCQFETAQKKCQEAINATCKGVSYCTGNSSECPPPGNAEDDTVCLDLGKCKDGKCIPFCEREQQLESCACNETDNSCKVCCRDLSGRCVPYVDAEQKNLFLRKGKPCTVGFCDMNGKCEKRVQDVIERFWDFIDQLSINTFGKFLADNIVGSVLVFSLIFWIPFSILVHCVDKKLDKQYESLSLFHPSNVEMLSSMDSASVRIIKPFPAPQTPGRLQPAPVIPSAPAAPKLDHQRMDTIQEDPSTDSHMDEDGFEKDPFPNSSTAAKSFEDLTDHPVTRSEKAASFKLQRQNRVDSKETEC

Question: Which results are given for `CC#CCOc1ccc(S(=O)(=O)N2CCSC(C)(C)[C@@H]2C(=O)NO)cc1` [(3S)-4-{[4-(but-2-yn-1-yloxy)benzene]sulfonyl}-N-hydroxy-2,2-dimethylthiomorpholine-3-carboxamide]?
Answer: IC50 [1]: 8.4 nM; IC50 [2]: 4.7 nM; IC50 (Interstitial collagenase): 6.6 nM; IC50 (Matrilysin): 26 nM; IC50 [3]: 26 nM; IC50 [4]: 100 nM
